For the series the following is noted: Liquid; for Critical pressure: Direct measurement; for Critical temperature: Visual observation in an unstirred cell.

Numbers after ± are expanded uncertainties.

For the compound `C1CCCCC1` [cyclohexane], the Critical pressure is reported as 4110 ± 30 kPa and the Critical temperature worked out at 554.1 ± 2.4 K.

`CCCCCC` [hexane]: the Critical pressure stood at 3030 ± 30 kPa and the Critical temperature is on record as 507.9 ± 2.4 K.

On to `COC(C)(C)C` [2-methoxy-2-methylpropane], for which the Critical pressure is listed as 3448 ± 30 kPa and the Critical temperature is given as 497 ± 2.4 K.

On to `CO` [methanol], for which the Critical pressure is reported as 8128 ± 30 kPa and the Critical temperature is given as 512.3 ± 2.4 K.

Take `CCO` [ethanol]: the Critical pressure was found to be 6135 ± 30 kPa and the Critical temperature is listed as 514.2 ± 2.4 K.

As to `CCCCCCC` [heptane], the Critical pressure amounted to 2761 ± 30 kPa and the Critical temperature worked out at 540 ± 2.4 K.

In the case of `CCCO` [propan-1-ol], the Critical pressure worked out at 5172 ± 30 kPa and the Critical temperature is 537 ± 2.4 K.

Values taken from the NIST ThermoML archive (doi:10.1016/j.jct.2013.03.002).
